# Measurements from patent US9999611B2, “SIRT 1 activator including syringaresinol” (AMOREPACIFIC CORPORATION, priority 2011, dated 2018).
# Legend:
# [1] = tested on: aged retinal cells (ARPE-19); assay: Mitochondrial function recovering effect in aged retinal cells: reactive oxygen species production (H2DCFDA, flow cytometer); assay type: cell-based, human; conditions: compared to cells treated only with DMSO, FIG. 16
# Experimental: The aging of retinal cells was induced while treating with 50 or 100 μM syringaresinol or with DMSO as a negative control, in substantially the same manner as in Test Example 7. For evaluation of mitochondrial function recovering effect, the level of energy (ATP) and reactive oxygen species production in retinal cells was investigated. The energy production was determined by recovering the aged cells after washing with PBS and then with hot water and measuring luminescence using the ATP determination kit (Molecular Probes, Eugene, Oreg., USA) and the Tecan system (Infinite M200, Tecan, Austria). The reactive oxygen species production was measured using a flow cytometer (BD Biosciences, San Jose, Calif., USA) after washing the aged cells with PBS and staining them with the reactive oxygen species detection reagent (H2DCFDA, Invitrogen, Carlsbad, Calif., USA).
# PGC-1β = PGC-1β mRNA expression promoting effect (qRT-PCR); assay type: cell-based, human; conditions: 50 μM, vs DMSO control, FIG. 13
# Experimental: Human adipocytes, hepatocytes and myocytes were treated with 50 μM syringaresinol in substantially the same manner as in Test Example 3 and washed with PBS. Then, RNA and cDNA were sequentially extracted therefrom. The mRNA expression of the energy metabolism-related genes PGC-1α and PGC-1β was analyzed by qRT-PCR. A result of comparing the expression of PGC-1α and PGC-1β with a control group treated only with DMSO is shown in FIG. 12 and FIG. 13, respectively.
# Human adipocytes = assay: Fatty acid oxidation promoting ability (3H2O in medium), adipocytes; assay type: cell-based; conditions: 50 μM, vs non-treated group, FIG. 11
# Experimental: Human adipocytes, hepatocytes and myocytes were treated with 50 μM syringaresinol in substantially the same manner as in Test Example 3. The cells were washed with PBS and cultured for a day in a medium for fatty acid oxidation analysis. The medium was recovered and the amount of ^3H2O was measured.
# SIRT1 = SIRT1 expression promoting effect in adipocytes, hepatocytes and myocytes (qRT-PCR); assay type: cell-based, human; conditions: 24 hours, FIG. 4
# Experimental: The SIRT1 gene expression promoting effect of syringaresinol in human adipocytes, hepatocytes and myocytes was evaluated as follows.
# Human adipocytes, hepatocytes and myocytes were purchased from Zen-Bio (Research Triangle Park, N.C., USA) and cultured in a 5% CO2 incubator using respectively an adipocyte medium (OM-AM, Zen-Bio), a hepatocyte medium (HM-2, Zen-Bio) and a myocyte medium (SKM-D, SKM-M, Zen-Bio). The cells were treated with syringaresinol dissolved in DMSO to a concentration of 20, 50 or 100 μM for 24 hours. A negative control group was treated with DMSO corresponding to 1/1000 of the volume of the culture medium.
# The cells treated with each sample were washed 2 times with cold PBS and RNA was extracted therefrom using the TRIzol reagent (Invitrogen). Then, cDNA was synthesized from the extracted RNA ([…]) using a reverse transcription system (Fermentas, Glen Burnie, Md., USA). The expression pattern of the SIRT1 and GAPDH genes was monitored by qRT-PCR using the synthesized cDNA and predesigned primers and probes. PCR reaction and analysis were carried out using the Rotor-Gene 3000 system (Corbett Research, Sydney, Australia).
# [2] = tested on: PGC-1α and PGC-1β, IL-10 and arginase I; assay: Change in human PBMC type: expression of type 2 immune cell-related genes; assay type: cell-based; conditions: human PBMCs, 20, 50 or 100 μM, vs DMSO; FIG. 21
# Experimental: After treating human PBMCs with 20, 50 or 100 μM syringaresinol or DMSO in substantially the same manner as in Test Example 11, RNA was extracted from the PBMCs and cDNA was synthesized therefrom in order to measure the expression of type 2 immune cell-related genes. The expression pattern of the transcriptional regulators necessary for inducement of differentiation to type 2 immune cells, such as PGC-1α and PGC-1β, and the genes mainly expressed in type 2 immune cells, such as IL-10 and arginase I, was measured using the synthesized cDNA.
smiles,measurement,setting,value
COc1cc(C2OCC3C(c4cc(OC)c(O)c(OC)c4)OCC23)cc(OC)c1O (stereo not shown) [syringaresinol],decreased reactive oxygen species production,[1]; 50 μM,about 7%
same,decreased reactive oxygen species production,[1]; 100 μM,~11%
same,expression of PGC-1β,PGC-1β; human adipocytes,increased the expression
same,expression of PGC-1β,PGC-1β; human hepatocytes,increased the expression
same,expression of PGC-1β,PGC-1β; human myocytes,increased the expression
same,fatty acid oxidation,Human adipocytes,increased fatty acid oxidation
same,SIRT1 expression,"SIRT1; human adipocytes, 20, 50 or 100 μM",increased SIRT1 expression
same,SIRT1 expression,"SIRT1; human hepatocytes, 20, 50 or 100 μM",increased SIRT1 expression
same,SIRT1 expression,"SIRT1; human myocytes, 20, 50 or 100 μM",increased SIRT1 expression
same,expression of type 2 immune cell-specific marker genes,[2],significantly increased expression
